# Test results taken from ChEMBL document CHEMBL4725361, “MicroRNA-Based Multitarget Approach for Alzheimer's Disease: Discovery of the First-In-Class Dual Inhibitor of Acetylcholinesterase and MicroRNA-15b Biogenesis” (J Med Chem, 2020).
# The source made the active and inactive calls. The rule behind the calls is not given here.
# Assays:
# [1] = target: Cholinesterase (Homo sapiens) (UniProt P06276); experiment: Inhibition of human blood BChE at 1 to 25 uM using butyrylthiocholine iodide as substrate measured after 20 mins by fluorescence assay; format: tissue-based; details: dose microM 1-25, time 20.0 min
# SH-SY5Y = experiment: Protection against amyloid beta oligomer-induced cytotoxicity in human SH-SY5Y cells expressing miRNA-15b assessed as cell viability at 10 uM after 72 hrs by MTT assay relative to control; format: functional; details: read-out: Activity
# [2] = Binding affinity to 5'Dabcyl/3'-fluorescein-labelled pre-miRNA146a (unknown origin) assessed as inhibition of recombinant human dicer-mediated pre-miRNA processing at 10 uM preincubated for 30 mins followed by dicer addition and measured after 5 hrs by FRET assay
# [3] = Solubility of the compound in pH 7.4 PBS buffer at 100 uM measured after 24 hrs by LC-MS/MS analysis; format: physicochemical
# Homo sapiens = organism: Homo sapiens; experiment: Inhibition of miRNA-15b biogenesis in human SH-SY5Y cells at 10 uM measured after 96 hrs by Trizol reagent based RT-qPCR analysis relative to control; format: cell-based
# Acetylcholinesterase [4] = target: T1, Acetylcholinesterase (Homo sapiens, UniProt P22303); experiment: Inhibition of recombinant human AChE at 10 uM using ATC as substrate by DTNB-reagent based Ellman's method relative to control
# HEL 299 = experiment: Cytotoxicity against HEL 299 cells measured after 2 days by MTT assay; format: cell-based; details: Homo sapiens, HEL 299, 48 h
# [5] = Apparent permeability across basolateral to apical side in human Caco2 cells after 120 mins by LC-MS/MS analysis; format: ADME, cell-based; details: Caco-2
# [6] = Permeability of the compound in PBS/EtOH solution measured after 16 hrs by PAMPA; format: ADME; details: read-out: permeability
# Acetylcholinesterase [7] = target: T1, Acetylcholinesterase; experiment: Mixed type inhibition of recombinant human AChE at […] using varying levels of ATC as substrate by Lineweaver-burk plot analysis; details: dose microM 0.5-10
# [8] = Partition coefficient, log P of the compound in pH 7.4 1-octanol/PBS buffer at 38 mg measured after 1 hr by LC-MS/MS analysis; format: physicochemical
# [9] = Half life in pH 1.6 simulated gastric fluid at 100 uM by LC-MS/MS analysis; format: ADME
# [10] = Binding affinity to 3'-fluorescein-labelled pre-miRNA-15b (unknown origin) measured after 30 mins by FRET assay
# [11] = Half life in pH 6.5 simulated intestinal fluid at 100 uM by LC-MS/MS analysis; format: ADME
# [12] = Stability in human serum assessed as parent compound remaining at 100 uM measured after 2 hrs by LC-MS/MS analysis; format: ADME, cell-free; details: read-out: Stabilty
# [13] = Binding affinity to 5'Dabcyl/3'-fluorescein-labelled pre-miRNA-15b (unknown origin) assessed as inhibition of recombinant human dicer-mediated pre-miRNA processing preincubated for 30 mins followed by dicer addition and measured after 5 hrs by FRET assay
# [14] = Half life in Sprague-Dawley rat liver microsomes at 100 uM measured at 20 mins interval by LC-MS/MS analysis; format: ADME, Microsome
# [15] = Binding affinity to 5'Dabcyl/3'-fluorescein-labelled pre-miRNA-15b (unknown origin) assessed as inhibition of dicer-mediated pre-miRNA processing […] by FRET assay
# [16] = Binding affinity to 5'Dabcyl/3'-fluorescein-labelled pre-miRNA-15b (unknown origin) assessed as inhibition of recombinant human dicer-mediated pre-miRNA processing at 10 uM preincubated for 30 mins followed by dicer addition and measured after 5 hrs by FRET assay
# Acetylcholinesterase [17] = target: T1, Acetylcholinesterase; experiment: Inhibition of recombinant human AChE using ATC as substrate by DTNB-reagent based Ellman's method
# [18] = Apparent permeability across apical to basolateral side in human Caco2 cells after 120 mins by LC-MS/MS analysis; format: ADME, cell-based; details: Caco-2
# [19] = Binding affinity to 5'Dabcyl/3'-fluorescein-labelled pre-miRNA124 (unknown origin) assessed as inhibition of recombinant human dicer-mediated pre-miRNA processing at 10 uM preincubated for 30 mins followed by dicer addition and measured after 5 hrs by FRET assay
# [20] = Binding affinity to miRNA-15b variant (unknown origin) transfected in human SH-SY5Y cells at 0.5 to 10 uM preincubated with cells for 4 hrs followed by transfection and measured after 4 days by renilla luciferase reporter gene assay; format: cell-based; details: dose microM 0.5-10, time 4.0 hrs
# [21] = Binding affinity to 5'Dabcyl/3'-fluorescein-labelled pre-miRNA212 (unknown origin) assessed as inhibition of recombinant human dicer-mediated pre-miRNA processing at 10 uM preincubated for 30 mins followed by dicer addition and measured after 5 hrs by FRET assay
# T1 sequence (P22303 whole entry): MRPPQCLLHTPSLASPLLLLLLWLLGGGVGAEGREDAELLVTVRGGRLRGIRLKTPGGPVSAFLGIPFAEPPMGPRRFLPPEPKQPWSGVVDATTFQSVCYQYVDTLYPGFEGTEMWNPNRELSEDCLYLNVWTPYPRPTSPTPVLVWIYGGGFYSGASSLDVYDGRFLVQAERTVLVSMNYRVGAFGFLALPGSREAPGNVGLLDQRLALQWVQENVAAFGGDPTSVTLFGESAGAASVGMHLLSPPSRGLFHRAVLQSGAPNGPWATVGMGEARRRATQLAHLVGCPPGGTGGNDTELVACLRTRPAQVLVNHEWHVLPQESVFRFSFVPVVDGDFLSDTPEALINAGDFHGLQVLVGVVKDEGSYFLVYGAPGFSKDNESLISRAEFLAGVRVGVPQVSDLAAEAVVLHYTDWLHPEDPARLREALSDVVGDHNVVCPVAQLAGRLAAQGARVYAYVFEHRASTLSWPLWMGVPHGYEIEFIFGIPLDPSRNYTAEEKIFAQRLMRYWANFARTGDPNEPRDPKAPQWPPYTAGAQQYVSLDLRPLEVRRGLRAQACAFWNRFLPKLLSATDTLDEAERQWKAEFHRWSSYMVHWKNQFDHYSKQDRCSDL
# Cholinesterase (Homo sapiens), sequence (P06276 whole entry): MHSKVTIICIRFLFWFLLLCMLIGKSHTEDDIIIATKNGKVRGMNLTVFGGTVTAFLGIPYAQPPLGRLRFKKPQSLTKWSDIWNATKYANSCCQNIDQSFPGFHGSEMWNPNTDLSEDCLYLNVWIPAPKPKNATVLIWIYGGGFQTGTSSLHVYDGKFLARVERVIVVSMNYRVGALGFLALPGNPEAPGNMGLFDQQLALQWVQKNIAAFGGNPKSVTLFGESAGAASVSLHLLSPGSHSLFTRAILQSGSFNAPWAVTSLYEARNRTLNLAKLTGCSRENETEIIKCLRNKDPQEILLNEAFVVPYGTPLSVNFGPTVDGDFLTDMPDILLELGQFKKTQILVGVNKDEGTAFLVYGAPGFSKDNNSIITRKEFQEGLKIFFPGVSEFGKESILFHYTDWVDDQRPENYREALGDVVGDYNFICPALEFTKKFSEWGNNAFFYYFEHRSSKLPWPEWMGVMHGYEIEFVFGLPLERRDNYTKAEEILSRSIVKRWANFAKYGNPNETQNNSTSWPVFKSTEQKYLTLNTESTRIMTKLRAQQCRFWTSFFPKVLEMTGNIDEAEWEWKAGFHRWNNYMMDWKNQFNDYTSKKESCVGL
smiles,measurement,setting,value
CCN(C)C(=O)Oc1cccc([C@H](C)N(C)C)c1,inhibition,[1],Active
COc1cc2c(cc1OC)C(=O)C(CC1CCN(Cc3ccccc3)CC1)C2 (stereo unspecified) [DONEPEZIL],viability at 10 µM,SH-SY5Y,45%
COCCn1cnc2cc(NC(=O)c3ccccc3)cc(C(=O)NCc3cc(F)cc(F)c3)c21,inhibition,[2],inactive
same,"solubility at 24 h, 100 µM",[3],34 µM
same,inhibition,Homo sapiens,55%
same,inhibition,Acetylcholinesterase [4],> 90%
same,IC50,HEL 299,> 50000 nM
same,Papp B→A at 2 h,[5],36.5 ×10⁻⁶ cm/s
same,Papp at 16 h,[6],30.8 ×10⁻⁶ cm/s
same,inhibition,Acetylcholinesterase [7],Active
same,logD at 1 h,[8],2.34
same,half-life at 100 µM,[9],6.87 h
same,Kd,[10],810 nM
same,half-life at 100 µM,[11],> 8.33 h
same,"remaining at 2 h, 100 µM",[12],99.1%
same,IC50,[13],370 nM
same,viability at 10 µM,SH-SY5Y,90%
same,half-life at 100 µM,[14],> 5 h
same,IC50,[15],530 nM
same,inhibition,[1],Active
same,inhibition,[16],Active
same,IC50,Acetylcholinesterase [17],120 nM
same,Papp A→B at 2 h,[18],16.7 ×10⁻⁶ cm/s
same,inhibition,[19],inactive
same,Activity,[20],inactive
same,inhibition,[21],inactive
